Experimental data: US11873298B2, “Compounds and uses thereof” (JANSSEN PHARMACEUTICA NV, priority 2017, dated 2024)

Assays:
SCD1 = molecular target: T1, SCD1 (Homo sapiens, UniProt O00767); assay: Growth inhibition of humanized yeast strain expressing SCD1 as sole desaturase; type: cell-based
T1 construct: host or cells: S. cerevisiae ole1Δ strain (W303 pdr1Δ pdr3Δ background), plasmid pRS316 with TDH3 promoter and CYC1 terminator
T1 sequence (O00767 1-359): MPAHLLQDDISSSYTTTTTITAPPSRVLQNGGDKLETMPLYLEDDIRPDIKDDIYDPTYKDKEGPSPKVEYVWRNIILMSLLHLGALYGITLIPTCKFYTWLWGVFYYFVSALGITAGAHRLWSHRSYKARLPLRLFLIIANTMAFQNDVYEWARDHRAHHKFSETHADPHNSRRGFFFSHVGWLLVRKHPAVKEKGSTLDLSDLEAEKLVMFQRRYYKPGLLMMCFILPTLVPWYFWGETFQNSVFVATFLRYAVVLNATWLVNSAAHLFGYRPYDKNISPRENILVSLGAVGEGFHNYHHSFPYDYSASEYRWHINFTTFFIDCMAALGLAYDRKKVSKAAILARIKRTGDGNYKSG
Method in brief: (§1)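 OD600 growth read-out. ole1Δ yeast, pdr1Δ pdr3Δ, with Ole1/SCD1/SCD5 on a plasmid; SX-Ura media throughout; 2× cell density 0.02 in CSM-Galactose; DMSO compound dilutions; humidified 30° C.; Ole1 stopped at 24 h, SCD1/SCD5 at 40 h.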

SCD5 = molecular target: T2, SCD5 (Homo sapiens, UniProt Q86SK9); assay: Growth inhibition of humanized yeast strain expressing SCD5 as sole desaturase; type: cell-based
T2 construct: host or cells: S. cerevisiae ole1Δ strain (W303 pdr1Δ pdr3Δ background), plasmid pRS316 with TDH3 promoter and CYC1 terminator
T2 sequence (Q86SK9 1-330): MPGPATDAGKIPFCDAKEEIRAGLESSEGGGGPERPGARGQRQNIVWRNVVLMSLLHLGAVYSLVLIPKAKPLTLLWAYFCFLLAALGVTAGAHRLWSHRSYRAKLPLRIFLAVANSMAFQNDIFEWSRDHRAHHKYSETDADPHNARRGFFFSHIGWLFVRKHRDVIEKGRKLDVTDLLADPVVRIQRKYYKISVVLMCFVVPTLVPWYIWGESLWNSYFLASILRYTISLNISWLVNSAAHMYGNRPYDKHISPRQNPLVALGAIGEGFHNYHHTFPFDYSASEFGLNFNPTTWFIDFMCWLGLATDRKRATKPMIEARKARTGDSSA
Method in brief: as §1

[1] = growth inhibition of humanized yeast strain expressing human SCD1
[2] = growth inhibition of humanized yeast strain expressing human SCD5
[3] = humanized yeast strain expressing SCD1
[4] = humanized yeast strain expressing SCD5

Row | Compound | IC50 (SCD1; humanized yeast strain, 40 h) | IC50 (SCD5; humanized yeast strain, 40 h) | also measured
1 | COC1(C(=O)N2CCC(C)(c3nc(-c4ccc5cnn(C(C)C)c5c4)no3)CC2)CC1 [Compound 748] | > 45 µM | 2.14 µM | 
2 | CCC(=O)N1CCC(c2cc(-c3cc4c(cn3)cnn4C(C)C)no2)CC1 [Compound 1089] | > 45 µM | 4.68 µM | 
3 | Cn1cc(-c2cc(-c3nc(C4CCN(C(=O)OC5(C)CC5)CC4)no3)ccn2)cn1 [Compound 1186] | 10 µM | 6.08 µM | 
4 | CC(C)(C)OC(=O)N1CCC(c2nc(-c3ccc4cn(C5CC(=O)C5)nc4c3)no2)CC1 [Compound 786] | > 45 µM | > 45 µM | 
5 | O=C1CC(c2noc(-c3ccc4cnn(C5COC5)c4c3)n2)CCN1CC1CC1 (stereo not shown) [Compound 1141] | > 45 µM | 0.865 µM | 
6 | C[C@H](NC(=O)[C@H]1[C@@H]2CN(C(=O)OC(C)(C)C)C[C@@H]21)c1ccccc1 [Compound 769] | > 45 µM | > 45 µM | 
7 | CC(C)(C)OC(=O)N1CCC(c2nnc(-c3ccc4cnn(C5CCOC5)c4c3)o2)CC1 (stereo not shown) [Compound 971] | > 45 µM | 0.089 µM | 
8 | CC1(C(=O)N2CCC(c3noc(-c4ccnc(C5CCOC5)c4)n3)CC2)CC1 (stereo not shown) [Compound 1178] | > 45 µM | 0.63 µM | 
9 | COC(=O)N1CCC(c2noc(-c3cc(F)c4cnn(C5CCOC5)c4c3)n2)CC1 (stereo not shown) [Compound 1073] | 8.36 µM | 0.00252 µM | 
10 | O=C(N1CC(c2noc(-c3ccc4cnn(C5COC5)c4c3)n2)C1)C(F)(F)F [Compound 954] | > 45 µM | 2.86 µM | 
11 | CC(C)(C)OC(=O)N1CCC(c2nc(-c3ccc4cnn([C@@H]5CCOC5)c4c3)no2)CC1 [Compound 792] | 8.83 µM | 0.01 µM | 
12 | CN(c1cc(-c2nc(C3CCN(C(=O)OC4(C)CC4)CC3)no2)ccn1)C1COC1 [Compound 1158] | > 45 µM | 3.5 µM | 
13 | CC(C)(C)CC(=O)N1CCC(c2nc(-c3ccc4cnn(C5COC5)c4c3)no2)CC1 [Compound 617] |  |  | IC50 (SCD1; [1]): > 45 µM; IC50 (SCD5; [2]): 0.121 µM
14 | C[C@H]1C[C@H](c2noc(-c3ccc4cnn(C5COC5)c4c3)n2)CCN1C(=O)C1CCC1 [Compound 1056] | > 45 µM | 0.00469 µM | 
15 | Cc1nn(C)c2cc(-c3noc(C4CCN(C(=O)CCC(F)(F)F)CC4)n3)ccc12 [Compound 518] |  |  | IC50 (SCD1; [3]): > 45 µM; IC50 (SCD5; [4]): 2.95 µM
16 | CC(C)n1ncc2ccc(-c3nc(C4CCN(C(=O)c5ncccc5Cl)CC4)no3)cc21 [Compound 692] |  |  | IC50 (SCD1; [1]): > 45 µM; IC50 (SCD5; [2]): 0.492 µM
17 | CC(C)C(=O)N1CCC(c2noc(N3CCc4nn(C5COC5)cc4C3)n2)CC1 [Compound 1195] | > 45 µM | > 45 µM | 
18 | Cc1nn(C)c2cc(-c3noc(C4CCN(C(=O)CN)CC4(F)F)n3)ccc12 (stereo not shown) [Compound 665] |  |  | IC50 (SCD1; [1]): > 45 µM; IC50 (SCD5; [2]): 5.01 µM
19 | COC(=O)N1CCC(c2cc(-c3ccc4cnn(C5COC5)c4c3)on2)CC1 [Compound 1027] | > 45 µM | 3.16 µM | 

Row | Compound | IC50 (SCD1; humanized yeast strain, 40 h) | IC50 (SCD5; humanized yeast strain, 40 h) | also measured
20 | CC(C)c1ncn2ccc(-c3noc(C4CCN(C(=O)OC(C)(C)C)CC4)n3)cc12 [Compound 866] | > 45 µM | 4.61 µM | 
21 | CC1(C(=O)N2CCC(c3noc(-c4ccnc(C5CCOC5)c4)n3)CC2)CCC1 (stereo not shown) [Compound 1179] | > 45 µM | 0.11 µM | 
22 | CC(C)n1ncc2cnc(-c3cc(C4CCN(C(=O)OC5(C)CC5)CC4)on3)cc21 [Compound 919] | > 45 µM | 0.18 µM | 
23 | Cc1nn(C)c2cc(-c3noc(C4CCN(C(=O)CNC(=O)c5cccc(F)c5)CC4(F)F)n3)ccc12 (stereo not shown) [Compound 602] |  |  | IC50 (SCD1; [3]): 15.9 µM; IC50 (SCD5; [4]): 2.74 µM
24 | CC(C)(C)OC(=O)N1CCC(c2noc(-c3ccccc3N3CCOCC3)n2)CC1 [Compound 1145] | > 45 µM | 11.1 µM | 
25 | CC1(OC(=O)N2CCC(c3nc(-c4ccc5cnn(C6CCOC6)c5c4)no3)CC2)CC1 (stereo not shown) [Compound 777] | 4.16 µM | 0.01 µM | 
26 | CC(C)n1ncc2ccc(-c3noc(N4CCn5c(Cl)cnc5C4)n3)cc21 [Compound 805] | > 45 µM | 9.36 µM | 
27 | CC(C)n1ncc2ccc(-c3noc(C4CCN(C(=O)CC5CC5(F)F)CC4)n3)cc21 (stereo not shown) [Compound 870] | > 45 µM | 4.26 µM | 
28 | CC(C)(C)OC(=O)N1CCC(c2nc(-c3cccc(C(=O)N4CCC4)c3)no2)CC1 [Compound 741] |  |  | IC50 (SCD1; [1]): > 45 µM; IC50 (SCD5; [2]): 7.76 µM
29 | CC(C)(C)OC(=O)N1CCC(c2nc(-c3ccnc(C4CCOC4)c3)no2)CC1 (stereo not shown) [Compound 992] | > 45 µM | 0.081 µM | 
30 | CC(C)n1ncc2ccc(-c3noc(C4CCN(C(=O)c5ncc(Cl)o5)CC4)n3)cc21 [Compound 758] | > 45 µM | 5.27 µM | 
31 | CC(C)n1ncc2ccc(-c3noc(N4CCC(C(CO)CCl)CC4)n3)cc21 (stereo not shown) [Compound 765] | 32.9 µM | 19.3 µM | 
32 | CC(C)(C)COC(=O)N1CC(c2nc(-c3ccc4cnn(C5COC5)c4c3)no2)C1 [Compound 709] |  |  | IC50 (SCD1; [1]): > 45 µM; IC50 (SCD5; [2]): 4.77 µM
33 | O=C(N1CCC(c2noc(-c3cc(F)c4cnn(C5COC5)c4c3)n2)CC1)C1(F)CC1 [Compound 1062] | 29 µM | 0.01 µM | 
34 | CC(C)C(=O)N1CCC(c2nc(-c3ccc4cnn(C5COC5)c4c3)no2)CC1 [Compound 1023] | > 45 µM | 0.295 µM | 
35 | CC(C)n1ncc2ccc(-c3noc(C4CCN(C(=O)CNC(=O)OC(C)(C)C)CC4(F)F)n3)cc21 (stereo not shown) [Compound 525] |  |  | IC50 (SCD1; [3]): > 45 µM; IC50 (SCD5; [4]): > 45 µM
36 | CC(C)C(=O)N1CCN(c2noc(-c3ccnc(Cl)c3)n2)CC1 [Compound 1119] | > 45 µM | > 45 µM | 
37 | Cc1nn(C)c2cc(-c3nc(C4CCN(C(=O)OC5CC5)CC4)no3)ccc12 [Compound 911] | > 45 µM | > 45 µM | 
38 | CN(C)CC(=O)N1CCN(c2nc(-c3ccc4cnn(C5COC5)c4c3)no2)CC1 [Compound 737] |  |  | IC50 (SCD1; [1]): > 45 µM; IC50 (SCD5; [2]): > 45 µM

Row | Compound | IC50 (SCD1; humanized yeast strain, 40 h) | IC50 (SCD5; humanized yeast strain, 40 h) | also measured
39 | CC(C)(C)OC(=O)N1CCC(c2cc(-c3ccc4cnn(C5COC5)c4c3)on2)CC1 [Compound 1026] | 3.98 µM | 0.2 µM | 
40 | COC(=O)N1CCC(c2nc(-c3cccc(C4CCOC4)c3)no2)CC1 (stereo not shown) [Compound 819] | > 45 µM | 3.72 µM | 
41 | CC(C)(C)OC(=O)N1CCC(c2ccc(-c3ccc4cnn(C5COC5)c4c3)nn2)CC1 [Compound 1030] | > 45 µM | 11 µM | 
42 | O=C(N1CCC(c2noc(-c3ccnc(C4CCOC4)c3)n2)CC1)C1(C(F)(F)F)CCC1 (stereo not shown) [Compound 1176] | > 45 µM | 0.14 µM | 
43 | CC(C)n1ncc2c1CN(c1noc(C3CCN(C(=O)OC(C)(C)C)CC3)n1)CC2 [Compound 827] | > 45 µM | > 45 µM | 
44 | CC(C)(C)OC(=O)N1C[C@@H]2[C@H](C1)[C@H]2C(=O)NCc1ccncc1 [Compound 768] | > 45 µM | > 45 µM | 
45 | CC(=O)N1CC(n2ncc3ccc(-c4noc(N5CCN(C(=O)OC(C)(C)C)CC5)n4)cc32)C1 [Compound 897] | > 45 µM | 0.06 µM | 
46 | C[C@H]1CN(c2noc(-c3ccc4cnn(C5COC5)c4c3)n2)CCN1C(=O)OC(C)(C)C [Compound 956] | > 45 µM | 2.46 µM | 
47 | CC(C)n1ncc2ccc(-c3noc(C4CCN(C(=O)N5CCC5(C)C)CC4)n3)cc21 [Compound 684] |  |  | IC50 (SCD1; [1]): > 45 µM; IC50 (SCD5; [2]): > 45 µM
48 | CC(C)(C)OC(=O)N1CCC(c2noc(-c3cc(F)c4cnn(C5COC5)c4c3)n2)CC1 [Compound 860] | > 45 µM | 0.478 µM | 
49 | CC(=O)N1CC(n2ncc3ccc(-c4nc(N5CCN(C(=O)OC(C)(C)C)CC5)no4)cc32)C1 [Compound 915] | > 45 µM | 10.1 µM | 
50 | O=C(C1CCC1)N1CCC(c2noc(-c3ccnc(N4CCOCC4)c3)n2)CC1 [Compound 1105] | > 45 µM | 0.549 µM | 
51 | O=C(C1CCC1)N1CCC(c2noc(-c3cccc(N4CCOCC4)n3)n2)CC1 [Compound 1103] | > 45 µM | 23.4 µM | 
52 | CC(C)n1ncc2ccc(-c3noc(C4CCN(Cc5ncco5)CC4)n3)cc21 [Compound 615] |  |  | IC50 (SCD1; [1]): 0.848 µM; IC50 (SCD5; [2]): 1.88 µM
53 | COC1(C(=O)N2CCN(c3noc(-c4ccc5cnn(C6COC6)c5c4)n3)CC2)CC1 [Compound 884] | > 45 µM | 0.01 µM | 
54 | CC(C)(C)CC(=O)N1CCC(c2nc(-c3ccc4cnn(C5CCOC5)c4c3)no2)CC1 (stereo not shown) [Compound 775] | > 45 µM | 0.022 µM | 
55 | O=C(N1CCC(c2noc(-c3ccc4cnn([C@@H]5CCOC5)c4c3)n2)CC1)C1(F)CC1 [Compound 1096] | > 45 µM | 0.00101 µM | 
56 | CC(=O)N1CC(n2cc3ccc(-c4nc(N5CCN(C(=O)OC(C)(C)C)CC5)no4)cc3n2)C1 [Compound 914] | > 45 µM | 6.17 µM | 
